Assay results taken from patent US10927118B2, “Inhibitors of influenza virus replication and uses thereof” (SUNSHINE LAKE PHARMA CO., LTD., priority 2017, dated 2021).

What was measured:
virus H1N1 A/Weiss/43 = assay: microbe, parasite or virus in culture; assay type: cell-based; details: 120 h; inhibition of CPE of influenza virus A/Weiss/43(H1N1) in MDCK cells, 5 days, CCK-8
in vivo = details: SD, rat
Method: Pharmacokinetic characteristics of the compounds of the invention in SD rats were evaluated. The compounds disclosed herein were administered in form of a saline solution containing 5% DMSO, 5% Kolliphor HS 15 and 90% Saline. For intravenous administration (iv), the animals were administered with a dose of 1 mg/kg, and blood samples (0.3 mL) were collected at the time points of 0.083, 0.25, 0.5, 1.0, 2.0, 5.0, 7.0 and 24 h after drug administration, then each blood sample was processed to separate plasma by centrifugation at 3000 rpm or 4000 rpm for 10 minutes. For oral administration (po), the animals were administered with a dose of 5 mg/kg, and blood samples (0.3 mL) were collected at the time points of 0.25, 0.5, 1.0, 2.0, 5.0, 7.0 and 24 h after drug administration, then each blood sample was processed to separate plasma by centrifugation at 3000 rpm or 4000 rpm for 10 minutes. Plasma samples were collected and stored at −20° C. or −70° C. until LC/MS/MS analysis.

## Cn1cc(-c2cc(NC3C4CCC(CC4)C3C(=O)O)nc(-c3c[nH]c4ncncc34)n2)cn1 (racemic) [Example 14, (+/−)-trans-3-((6-(1-methyl-1H-pyrazol-4-yl)-2-(7H-pyrrolo[2,3-d]pyrimidin-5-yl)pyrimidin-4-yl)amino)bicyclo[2.2.2]octane-2-carboxylic acid]
Virus H1N1 A/Weiss/43
  EC50: 6.32 nM

## O=C(O)C1C2CCC(CC2)C1Nc1nc(-c2c[nH]c3ncncc23)nc2ccccc12 (racemic) [Example 18, (+/−)-trans-3-((2-(7H-pyrrolo[2,3-d]pyrimidin-5-yl)quinazolin-4-yl)amino) bicyclo[2.2.2]octane-2-carboxylic acid]
Virus H1N1 A/Weiss/43
  EC50: 17.5 nM

## O=C(O)C1C2CCC(CC2)C1Nc1cc(-c2ccoc2)nc(-c2c[nH]c3ncncc23)n1 (racemic) [Example 9, (+/−)-trans-3-((6-(furan-3-yl)-2-(7H-pyrrolo[2,3-d]pyrimidin-5-yl)pyrimidin-4-yl)amino)bicyclo[2.2.2]octane-2-carboxylic acid]
Virus H1N1 A/Weiss/43
  EC50: 9.57 nM

## O=C(O)C1C2CCC(CC2)C1Nc1nc(-c2c[nH]c3ncncc23)nc(-c2ccco2)c1F (racemic) [Example 7, (+/−)-trans-3-((5-fluoro-6-(furan-2-yl)-2-(7H-pyrrolo[2,3-d]pyrimidin-5-yl)pyrimidin-4-yl)amino)bicyclo[2.2.2]octane-2-carboxylic acid]
Virus H1N1 A/Weiss/43
  EC50: 4.02 nM

## O=C(O)C1C2CCC(CC2)C1Nc1nc(-c2c[nH]c3ncncc23)ncc1F (stereo not shown) [Control compound A, reference compound]
Virus H1N1 A/Weiss/43
  EC50: > 100000 nM

## CC(C)n1ccc2c(NC3C4CCC(CC4)C3C(=O)O)nc(-c3c[nH]c4ncncc34)nc21 (racemic) [Example 4, (+/−)-trans-3-((7-isopropyl-7H,7′H-[2,5′-bipyrrolo[2,3-d]pyrimidin]-4-yl)amino) bicyclo[2.2.2]octane-2-carboxylic acid]
Virus H1N1 A/Weiss/43
  EC50: 6.56 nM

## O=C(O)C1C2CCC(CC2)C1Nc1cc(C#Cc2ccccc2)nc(-c2c[nH]c3ncncc23)n1 (racemic) [Example 12, (+/−)-trans-3-((6-(phenylethynyl)-2-(7H-pyrrolo[2,3-d]pyrimidin-5-yl)pyrimidin-4-yl)amino)bicyclo[2.2.2]octane-2-carboxylic acid]
Virus H1N1 A/Weiss/43
  EC50: 7.24 nM

## O=C(O)C1C2CCC(CC2)C1Nc1nc(-c2c[nH]c3ncncc23)nc(-c2ccccc2)c1F (racemic) [Example 13, (+/−)-trans-3-((5-fluoro-6-phenyl-2-(7H-pyrrolo[2,3-d]pyrimidin-5-yl)pyrimidin-4-yl)amino)bicyclo[2.2.2]octane-2-carboxylic acid]
Virus H1N1 A/Weiss/43
  EC50: 8.68 nM

## Cn1ccc2c(NC3C4CCC(CC4)C3C(=O)O)nc(-c3c[nH]c4ncncc34)nc21 (racemic) [Example 3, (+/−)-trans-3-((7-methyl-7H,7′H-[2,5′-bipyrrolo[2,3-d]pyrimidin]-4-yl)amino)bicyclo[2.2.2]octane-2-carboxylic acid]
Virus H1N1 A/Weiss/43
  EC50: 9.41 nM
In vivo; iv, 1 mg/kg
  AUC(0-inf): 4320 ng·h/mL
  AUC(0-t): 4280 ng·h/mL
  clearance: 9.8 mL/min/kg
In vivo; po, 5 mg/kg
  AUC(0-inf): 15700 ng·h/mL
  AUC(0-t): 15600 ng·h/mL

## O=C(O)C1C2CCC(CC2)C1Nc1cc(-c2ccco2)nc(-c2c[nH]c3ncncc23)n1 (racemic) [Example 2, (+/−)-trans-3-((6-(furan-2-yl)-2-(7H-pyrrolo[2,3-d]pyrimidin-5-yl)pyrimidin-4-yl)amino)bicyclo[2.2.2]octane-2-carboxylic acid]
Virus H1N1 A/Weiss/43
  EC50: 5.19 nM
In vivo; iv, 1 mg/kg
  AUC(0-inf): 4020 ng·h/mL
  AUC(0-t): 3190 ng·h/mL
  clearance: 10.7 mL/min/kg
In vivo; po, 5 mg/kg
  AUC(0-inf): 12900 ng·h/mL
  AUC(0-t): 12700 ng·h/mL

## O=C(O)C1C2CCC(CC2)C1Nc1nc(-c2c[nH]c3ncncc23)nc2sccc12 (racemic) [Example 20, (+/−)-trans-3-((2-(7H-pyrrolo[2,3-d]pyrimidin-5-yl)thieno[2,3-d]pyrimidin-4-yl)amino)bicyclo[2.2.2]octane-2-carboxylic acid]
Virus H1N1 A/Weiss/43
  EC50: 19.2 nM

## O=C(O)C1C2CCC(CC2)C1Nc1cc(-c2cc3ccccc3o2)nc(-c2c[nH]c3ncncc23)n1 (racemic) [Example 11, (+/−)-trans-3-((6-(benzofuran-2-yl)-2-(7H-pyrrolo[2,3-d]pyrimidin-5-yl)pyrimidin-4-yl)amino)bicyclo[2.2.2]octane-2-carboxylic acid]
Virus H1N1 A/Weiss/43
  EC50: 14.4 nM
